Results: article PMC8954792 (Viruses, 2022)

tested on: authentic SARS-CoV-2 Delta (B.1.617.2) variant; test: microbe, parasite or virus in culture; format: cell-based; conditions: Severe acute respiratory syndrome coronavirus 2, Vero C1008

Point of comparison: `CCOc1ccc(CCN2C(=O)/C(=C/c3ccc(-c4ccc(Cl)c(C(=O)O)c4)o3)SC2=S)cc1` [FD009], IC50 0.0135 µM. Against it:
- O=C(O)c1cc(-c2ccc(/C=C3\SC(=S)N(CCc4ccc(OCc5ccsc5)cc4)C3=O)o2)ccc1Cl [FD013] — 4.5-fold higher, 0.0603 µM
- C#CCOc1ccc(CCN2C(=O)/C(=C/c3ccc(-c4ccc(Cl)c(C(=O)O)c4)o3)SC2=S)cc1 [FD007] — 3.9-fold higher, 0.0525 µM
- O=C(O)c1cc(-c2ccc(/C=C3\SC(=S)N(CCc4ccc(OCc5ccc(F)cc5)cc4)C3=O)o2)ccc1Cl [FD010] — 1.9-fold higher, 0.0263 µM
- C#CCOCCOc1ccc(CCN2C(=O)/C(=C/c3ccc(-c4ccc(Cl)c(C(=O)O)c4)o3)SC2=S)cc1 [FD008] — 7.1-fold higher, 0.0959 µM
- CCC(CC)COC(=O)[C@H](C)N[P@](=O)(OC[C@H]1O[C@@](C#N)(c2ccc3c(N)ncnn23)[C@H](O)[C@@H]1O)Oc1ccccc1 [Remdesivir, remdesivir, reference compound] — within 1.5-fold, 0.0186 µM
- O=C(O)c1cc(-c2ccc(/C=C3\SC(=S)N(CCc4ccc(OCC5CC5)cc4)C3=O)o2)ccc1Cl [FD012] — 9.4-fold higher, 0.127 µM
